Data reported in ChEMBL document CHEMBL1201862, “PubChem BioAssay data set” (2004).
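Results reflect a 48-hour exposure of cells in 96-well plates to compound at five concentrations. At the GI50, growth is halved.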 Calls of active or inactive are those of the source. Cut-off read from the data, not from the text of the source: active = GI50 up to about 1.1 µM and inactive = higher.

Tests used:
Experiment in all cases: growth of human tumour cells (NCI), 48 h
BT-549 = tested on: BT-549
SK-MEL-5 = tested on: SK-MEL-5
UACC-62 = tested on: UACC-62
NCI-H460 = tested on: NCI-H460
KM12 = tested on: KM12
MDA-MB-231 = tested on: MDA-MB-231
OVCAR-4 = tested on: OVCAR-4
SK-MEL-2 = tested on: SK-MEL-2
MDA-N = tested on: MDA-N
DU-145 = tested on: DU-145
ACHN = tested on: ACHN
RPMI-8226 = tested on: RPMI-8226
HCT-116 = tested on: HCT-116
K562 = tested on: K562
HCC 2998 = tested on: HCC 2998
DMS-114 = tested on: DMS-114
PC-3 = tested on: PC-3
RXF 393 = tested on: RXF 393
SK-MEL-28 = tested on: SK-MEL-28
HOP-92 = tested on: HOP-92

Row | SMILES | GI50 (BT-549) | GI50 (SK-MEL-5) | GI50 (UACC-62) | GI50 (NCI-H460) | GI50 (KM12) | GI50 (MDA-MB-231) | GI50 (OVCAR-4) | GI50 (SK-MEL-2) | GI50 (MDA-N) | GI50 (DU-145) | GI50 (ACHN) | GI50 (RPMI-8226) | GI50 (HCT-116) | GI50 (K562) | GI50 (HCC 2998) | GI50 (DMS-114) | GI50 (PC-3) | GI50 (RXF 393) | GI50 (SK-MEL-28) | GI50 (HOP-92)
1 | CCN(CC)CCC(=O)N1C/C(=C/c2ccccc2)C(=O)/C(=C\c2ccccc2)C1 | 363 nM (active) | 1760 nM (inactive) | 2030 nM (inactive) | 3240 nM (inactive) | 541 nM (active) | 845 nM (active) | 2170 nM (inactive) | 2190 nM (inactive) | 865 nM (active) | 3150 nM (inactive) | 2780 nM (inactive) | 114 nM (active) | 321 nM (active) | 141 nM (active) | 706 nM (active) | 1790 nM (inactive) | 1060 nM (active) | 1510 nM (inactive) | 1820 nM (inactive) | 4520 nM (inactive)
2 | COC1=CC(=O)c2c(O)c3c(c(O)c2C1=O)C=C(C)OC3O (stereo not given) | 2070 nM (inactive) | 269 nM (active) | 859 nM (active) | 1350 nM (inactive) | 2210 nM (inactive) | 1760 nM (inactive) | 1920 nM (inactive) | 1960 nM (inactive) | 1660 nM (inactive) | 1010 nM (active) | 2100 nM (inactive) | 1500 nM (inactive) | 569 nM (active) | 1440 nM (inactive) | 1560 nM (inactive) | 1230 nM (inactive) | 2640 nM (inactive) | 1050 nM (active) | 1270 nM (inactive) | 6840 nM (inactive)
